Experimental data reported in patent publication US11419335B2, “N-arylated analogues and uses thereof” (University of Florida Research Foundation, Incorporated, priority 2016, dated 2022).
≈ marks a conversion by molar mass, not a printed value. Marks after values point to notes of the source that are not given here.

Assays:
Format in all cases: cell-based
[1] = system: vancomycin-resistant Enterococcus faecium (VRE strain ATCC 700221); assay: MIC broth microdilution, VRE 700221; details: for MIC E. faecium VRE 700221: Table 1A
Method: (§1) The minimum inhibitory concentration (MIC) for each tested compound was determined by the broth microdilution method as recommended by the Clinical and Laboratory Standards Institute (CLSI). In a 96-well plate, eleven two-fold serial dilutions of each compound were made in a final volume of 100 μL Luria Broth. Each well was inoculated with ˜10^5 bacterial cells at the initial time of incubation, prepared from a fresh log phase culture (OD600 of 0.5 to 1.0 depending on bacterial strain). The MIC was defined as the lowest concentration of compound that prevented bacterial growth after incubating 16 to 18 hours at 37° C. (MIC values were supported by spectrophotometric readings at OD600). DMSO served as our vehicle and negative control in each microdilution MIC assay. DMSO was serially diluted with a top concentration of 1% v/v.
as §1, with “for each compound was” for “for each tested compound was”, “Standards Institute (CLSI).^6 In a” for “Standards Institute (CLSI). In a”, “concentration of test compound that” for “concentration of compound that”, “37° C. The concentration range tested for each compound during this study was 0.10 to 100 μM. DMSO served” for “37° C. (MIC values were supported by spectrophotometric readings at OD600). DMSO served”, “1% v/v. All MIC values were obtained from a minimum of three independent experiments.” for “1% v/v.”

[2] = system: Acinetobacter baumannii (ATCC 1794); assay: MIC broth microdilution, A. baumannii 1794; details: for MIC A. baumannii 1794: Table 1A, in µM
Method: as §1
as §1, with “for each compound was” for “for each tested compound was”, “Standards Institute (CLSI).^6 In a” for “Standards Institute (CLSI). In a”, “concentration of test compound that” for “concentration of compound that”, “37° C. The concentration range tested for each compound during this study was 0.10 to 100 μM. DMSO served” for “37° C. (MIC values were supported by spectrophotometric readings at OD600). DMSO served”, “1% v/v. All MIC values were obtained from a minimum of three independent experiments.” for “1% v/v.”

[3] = system: methicillin-resistant Staphylococcus epidermidis (MRSE strain ATCC 35984); assay: MIC broth microdilution, MRSE 35984; details: for MIC S. epidermidis MRSE 35984: Table 1A
Method: as §1
as §1, with “for each compound was” for “for each tested compound was”, “Standards Institute (CLSI).^6 In a” for “Standards Institute (CLSI). In a”, “concentration of test compound that” for “concentration of compound that”, “37° C. The concentration range tested for each compound during this study was 0.10 to 100 μM. DMSO served” for “37° C. (MIC values were supported by spectrophotometric readings at OD600). DMSO served”, “1% v/v. All MIC values were obtained from a minimum of three independent experiments.” for “1% v/v.”

[4] = system: Pseudomonas aeruginosa (PAO1); assay: MIC broth microdilution, PAO1
Method: as §1
as §1, with “for each compound was” for “for each tested compound was”, “Standards Institute (CLSI).^6 In a” for “Standards Institute (CLSI). In a”, “concentration of test compound that” for “concentration of compound that”, “37° C. The concentration range tested for each compound during this study was 0.10 to 100 μM. DMSO served” for “37° C. (MIC values were supported by spectrophotometric readings at OD600). DMSO served”, “1% v/v. All MIC values were obtained from a minimum of three independent experiments.” for “1% v/v.”

[5] = system: methicillin-resistant Staphylococcus aureus MRSA-2 (clinical isolate); assay: MIC broth microdilution, MRSA-2
Method: as §1
as §1, with “for each compound was” for “for each tested compound was”, “Standards Institute (CLSI).^6 In a” for “Standards Institute (CLSI). In a”, “concentration of test compound that” for “concentration of compound that”, “37° C. The concentration range tested for each compound during this study was 0.10 to 100 μM. DMSO served” for “37° C. (MIC values were supported by spectrophotometric readings at OD600). DMSO served”, “1% v/v. All MIC values were obtained from a minimum of three independent experiments.” for “1% v/v.”

MIC ([1]; Table 4, read-out: MIC VRE 700221) [µM] | MIC ([2]; Acinetobacter baumannii, ATCC1794, Table 4, read-out: MIC A. bau. 1794) [µM] | MIC ([3]; Staphylococcus epidermidis, Table 4, read-out: MIC MRSE 35984) [µM] | MIC ([4]; Pseudomonas aeruginosa, PAO1, Table 4) [µM] | MIC ([5]; Staphylococcus aureus, MRSA, Table 4, read-out: MIC MRSA-2) [µM] | SMILES | MIC E. faecium VRE 700221 [1] | MIC VRE 700221 ([1]; Table 4) | MIC A. baumannii 1794 [2] | MIC A. bau. 1794 ([2]; Table 4) [µM] | MIC S. epidermidis MRSE 35984 [3] | MIC MRSE 35984 ([3]; Table 4) | MIC PAO1 ([4]; Table 1A) [µM] | MIC PAO1 ([4]; Table 4) [µM] | MIC MRSA-2 ([5]; Table 1A) [µM] | MIC MRSA-2 ([5]; Table 4) [µM]
 |  |  |  |  | CCCCCCCCCCCCCCCCn1cc[n+](Cc2ccc(Br)cc2)c1C.[Br-] [Compound 14] | 4.69^a | 4.69a micromolar | >100* | >100 | 6.25 µM | 6.25 µM | > 100 | >100 | 6.25 | 6.25
 |  |  |  |  | CCCCCCCCCCCCCCCCn1cc[n+](Cc2cc(C(F)(F)F)cc(C(F)(F)F)c2)c1C.[Br-] [Compound 19] | 9.38^a | 9.38a micromolar | >100 | >100 |  | 12.5 µM | > 100 | >100 | 12.5 | 12.5
 |  |  |  |  | CCCCCCCCCCCCCCCCn1cc[n+](Cc2cc(Br)cc(Br)c2)c1C.[Br-] [Compound 20] | 6.25 µM | 6.25 µM | >100 | >100 | 12.5 µM | 12.5 µM | > 100 | >100 | 37.5 | 37.5
> 100 | > 100 | > 100 | > 100 | > 100 | Cc1nccn1Cc1ccccc1 [Compound 22] | > 100 µM |  | >100 |  | > 100 µM |  | > 100 |  | > 100 | 
 |  |  |  |  | CCCCCCCCCCCCCCCCn1ccnc1C [Compound 23, 1-hexadecyl-2-methyl-1H-imidazole] | 2.35^a |  | >100 |  | 3.13 µM (≈ 0.959 µg/mL) |  | > 100 |  | 6.25 (≈ 1.92 µg/mL) | 
 |  |  |  |  | CCCCCCCCCCCCCCCCn1c(C)[n+](Cc2cccc(OC)c2)c2ccccc21.[Br-] [Compound 26] | 1.56 µM | 1.56 µM | >100 | >100 | 6.25 µM | 6.25 µM | > 100 | >100 | 3.13 | 3.13
 |  |  |  |  | CCCCCCCCCCCCCCCCn1c(C)[n+](Cc2cccc(F)c2)c2ccccc21.[Br-] [Compound 27] | 3.13 µM | 3.13 µM | >100 | >100 | 9.38^a | 9.38a micromolar | > 100 | >100 | 6.25 | 6.25
